One assay concerns cholesterol absorption. In words: Acute in vivo cholesterol absorption model: inhibition of 14C-cholesterol absorption into plasma, intestinally cannulated rats. Further details: species or system Male Sprague-Dawley rats. The following applies: rat, relative to bile vehicle control. The protocol:
Male Sprague-Dawley rats weighing 300-400 g were used. After an overnight fast, rats were anesthetized (Inactin, […] i.p.) for the duration of each study and were fitted with a cannula into the small intestine just below the pyloric valve. For the cannulation of the small intestine, a catheter (Surflo® i.v. catheter (18GX2″), Terumo Medical Corporation; Elkton, Md.) was inserted through the fundus of the stomach, advanced 1 cm beyond the pylorus, and ligated in place. Compounds were mixed in rat bile and delivered by bolus injection (1 mL) via the intestinal catheter into the small intestine.
One hour after the bile doses were delivered, three mL of an emulsion consisting of 2.23 mg/mL L-phosphatidylcholine and 11.8 mg/mL triolein in 19 mM sodium taurocholate (Sigma; St. Louis, Mo.) buffer (pH 6.4) containing 3 mg cholesterol and 1 mCi ^14C-cholesterol (NEN; Boston, Mass.) was delivered to each rat as a bolus via the intestinal cannula. Ninety minutes after the cholesterol emulsion was delivered, the rats were euthanized. Blood was collected and plasma was separated by centrifugation at 2000 rpm for 15 min at 4° C. Triplicate aliquots of plasma were analyzed ^14C radioactivity and inhibition of cholesterol absorption relative to bile vehicle control rats was determined.

The target of assay [1] is T1, Scavenger receptor, class B, type I (SR-BI) (Rattus norvegicus, UniProt P97943).
T1 construct: expressed in transfected cells; host or cells: mouse cell line BW5147, infected with pMX retrovirus packaged in BOSC23
T1 sequence (P97943 1-509): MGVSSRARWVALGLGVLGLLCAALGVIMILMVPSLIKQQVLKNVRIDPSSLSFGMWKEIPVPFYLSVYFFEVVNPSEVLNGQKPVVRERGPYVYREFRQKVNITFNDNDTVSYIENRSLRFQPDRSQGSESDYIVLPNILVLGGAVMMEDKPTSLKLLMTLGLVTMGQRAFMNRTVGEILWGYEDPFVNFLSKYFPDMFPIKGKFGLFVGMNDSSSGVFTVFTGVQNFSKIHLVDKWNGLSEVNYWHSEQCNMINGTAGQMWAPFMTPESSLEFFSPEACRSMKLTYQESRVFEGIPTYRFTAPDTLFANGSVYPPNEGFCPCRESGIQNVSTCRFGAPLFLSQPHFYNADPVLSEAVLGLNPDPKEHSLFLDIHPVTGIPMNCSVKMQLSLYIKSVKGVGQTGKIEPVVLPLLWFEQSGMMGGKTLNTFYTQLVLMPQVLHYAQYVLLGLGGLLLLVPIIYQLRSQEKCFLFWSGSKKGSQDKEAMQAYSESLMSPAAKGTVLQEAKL
Put plainly: Expression cloning of rat intestinal epithelial cDNA library in BW5147 cells, stained with fluorescent compound, FACS. It counts as cell-based. The following applies: two clones from two independent cDNA expression libraries, FACS-positive BW5147 cells. The text has this: The small intestine was removed from male CRL: CD BR rats. Intestinal epithelial cells were isolated by the method of Weiser (Weiser, M., 1973, JBC 248, 2536-2541) and the mRNA extracted. Poly A mRNA was purified and double stranded cDNA synthesized. Adapter linkers were ligated followed by size selection (>2 Kb) of the cDNA. The selected fraction of cDNA was ligated into the retroviral expression plasmid pMX, subsequently transformed into bacteria and grown on selective agar at a clonal density of −30,000/plate. Each pool of bacterial clones was collected and plasmid DNA prepared.
Individual pools of cDNA library were transformed into the retroviral packaging cell line BOSC23 and the resulting viral particles, containing the cDNA library, were used to infect the mouse cell line BW5147. Following infection BW5147 cells were stained with compound 1C and analyzed by fluorescent activated cell sorting (FACS). Positive staining cells (−01%) were recovered and re-cultured. The process of recovering positive staining cells was repeated after expansion of the cell population in culture and following the second round of FACS analysis individual cells were isolated by limiting dilution.
Individual clonal populations of cells were subjected to PCR using retroviral vector specific oligonucleotide primers designed to flank the multiple cloning site in which the cDNA library was cloned. […]

As for `O=C(CCCCCNC(=O)c1ccc(-c2c3ccc(=O)cc-3oc3cc(O)ccc23)c(C(=O)O)c1)NCC#Cc1ccc(N2C(=O)[C@H](CC[C@H](O)c3ccc(F)cc3)[C@H]2c2ccc(O[C@@H]3O[C@H](C(=O)O)[C@@H](O)[C@H](O)[C@H]3O)cc2)cc1` [IB], the “% Inhibition of [14C]-Cholesterol Absorption into Plasma” value in the assay on cholesterol absorption (dose 56 μg/kg in rat bile via intestinal catheter) is recorded as 79%; in the assay with cholesterol absorption (dose 186 μg/kg in rat bile via intestinal catheter), 88%.
As for “[1-O-[4-[1-[4-[3-[[3-[2-[(3,5-DIMETHYL-1H-PYRROL-2-YL-.KAPPA.N)METHYLENE]-2H-PYRROL-5-YL-.KAPPA.N]-1-OXOPROPYL]AMINO]-1-PROPYNYL]PHENYL]-3(R)-[3(S)-HYDROXY-3-(4-FLUOROPHENYL)PROPYL]-2-OXO-4(S)-AZETIDINYL]PHENYL]-BETA-D-GLUCURONATO]DIFLUOROBORATE, HYDROGEN [IC]”, the “% Inhibition of [14C]-Cholesterol Absorption into Plasma” value is recorded as 58% in the assay with cholesterol absorption (dose 30 μg/kg in rat bile via intestinal catheter) and 80% in the assay with cholesterol absorption (dose 100 μg/kg in rat bile via intestinal catheter). In assay [1], the “cellular receptor identified by expression cloning with the fluorescent compound” value is recorded as “identified as the cellular receptor”.

The values above are taken from patent publication US7723020B2, “Use of azetidinone compounds” (Schering Corporation, priority 1999, dated 2010).
